# Data reported in US20260049091A1, “2-(1,8-DIETHYL-1,3,4,9-TETRAHYDROPYRANO[3,4-B]INDOL-1-YL)-1-(4-METHYLPIPERAZIN-1-YL)ETHAN-1-ONE ETODOLAC DERIVATIVE AS EUKARYOTIC ELONGATION FACTOR 2 KINASE (EEF2K) INHIBITOR FOR TARGETED CANCER THERAPY” (BAHCESEHIR UNIVERSITESI, priority 2023, published 2026).
# What was measured:
# eEF2K [1] = biological target: T1, eEF2K (Homo sapiens, UniProt O00418); test: Western blot analysis of eEF2K inhibition (p-EF2 Thr56) in MDA-MB-231 cells; type: cell-based; conditions: for eEF2K inhibition potential (p-EF2 Thr56): MDA-MB-231 (TNBC) cells, 2.5 to 20 micromolar, 2 h; for eEF2K inhibition, reduced p-EF2 (Thr56) levels: MDA-MB-231 cells, 2.5 micromolar, 2 h treatment
# T1 sequence (O00418 1-725): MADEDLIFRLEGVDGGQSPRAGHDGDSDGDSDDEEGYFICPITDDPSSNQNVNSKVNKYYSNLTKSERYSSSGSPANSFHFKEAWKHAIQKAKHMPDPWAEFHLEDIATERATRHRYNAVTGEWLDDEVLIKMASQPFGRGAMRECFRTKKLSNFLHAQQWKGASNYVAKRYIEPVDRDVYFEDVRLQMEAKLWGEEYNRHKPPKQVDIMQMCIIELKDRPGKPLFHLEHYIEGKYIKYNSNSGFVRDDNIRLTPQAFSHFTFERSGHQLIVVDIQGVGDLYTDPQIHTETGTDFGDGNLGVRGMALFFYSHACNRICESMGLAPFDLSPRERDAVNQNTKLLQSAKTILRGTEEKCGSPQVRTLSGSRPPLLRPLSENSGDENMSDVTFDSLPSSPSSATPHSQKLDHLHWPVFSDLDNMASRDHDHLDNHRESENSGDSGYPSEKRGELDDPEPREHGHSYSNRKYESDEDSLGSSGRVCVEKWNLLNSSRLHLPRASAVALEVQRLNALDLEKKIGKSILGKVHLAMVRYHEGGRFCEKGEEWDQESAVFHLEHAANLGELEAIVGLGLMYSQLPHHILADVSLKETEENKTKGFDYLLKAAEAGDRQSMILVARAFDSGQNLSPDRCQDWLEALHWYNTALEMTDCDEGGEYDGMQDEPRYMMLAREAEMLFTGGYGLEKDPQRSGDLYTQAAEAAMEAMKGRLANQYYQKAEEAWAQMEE
# Experimental: MeOH: distilled water by volume (%) (70:30) was used as the mobile phase for HPLC analysis for the inventive compound and the flow rate was set to 1 mL min^−1. Triple negative breast cancer (TNBC) cell lines (ER-, PR- and HER2-) MDA-MB-231 cells were purchased from the American Type Culture Collection (ATCC) (Manassas, VA, USA). MDA-MB-231 cells were cultured in Dulbecco's modified Eagle's medium (DMEM)/F12 supplemented with 10% FBS (Fetal Bovine Serum) and 100 U mL^−1 penicillin and streptomycin. Specific antibodies (p-EF2 (Thr56) (2331S), eEF2 (2332S), eEF2K (3692S) and GAPDH (5174S)) were purchased from Cell Signaling Technology (CST).
# Western blot analysis was carried out according to previously reported studies to evaluate the eEF2K inhibition activity for the synthesized compounds. The synthesized compound was applied to MDA-MB-231 cells in the range of various concentrations from 2.5 to 20 micromolar for 2 h treatment. The expression levels of p-EF2 (Thr56) inhibition and eEF2K activity were determined by using related antibodies such as p-EF2 (Thr56), eEF2 and eEF2K. Glyceraldehyde 3-phosphate dehydrogenase (GAPDH) was used as a loading control.
# To determine the effects of the synthesized compounds in inhibiting eEF2K activity in TNBC, MDA-MB-231 cells, we performed western blot analysis at concentrations ranging from 2.5 micromolar to 20 micromolar in a dose-dependent manner. eEF2K inhibition was detected by decreased phosphorylation levels of EF2 (p-EF2-Thr-56), a direct downstream substrate of the enzyme.
# eEF2K [2] = biological target: T1, eEF2K; conditions: cited from earlier work; for eEF2K inhibition (reported, in words): literature
eEF2K inhibition potential (p-EF2 Thr56) (eEF2K [1]),"eEF2K inhibition, reduced p-EF2 (Thr56) levels (eEF2K [1])","eEF2K inhibition, reduced p-EF2 (Thr56) levels (eEF2K [1]; listed as compound of the invention)",SMILES,"eEF2K inhibition (reported, in words) (eEF2K [2])",concentration reported to inhibit eEF2K (eEF2K [2]; literature [44-46]) [µM]
did not show any inhibition potential,–,–,"CCc1cccc2c3c([nH]c12)C(CC)(CC(=O)O)OCC3 (racemic) [Etodolac, (R,S)-2-[1,8-diethyl-1,3,4-tetrahydropyrano [3,4-b]indol-1-yl]acetic acid]",–,–
high inhibition potential,highest phospho-eEF2 (Thr56) inhibition,marked inhibition of eEF2K,"CCc1cccc2c3c([nH]c12)C(CC)(CC(=O)N1CCN(C)CC1)OCC3 (stereo not shown) [Inventive compound, 2-(1,8-diethyl-1,3,4,9-tetrahydropyrano [3,4-b]indol-1-yl)-1-(4-methylpiperazin-1-yl) ethan-1-one]",–,–
–,–,–,CCCCCCCCCCCCCCCCn1cc[n+](Cc2ccccc2)c1C.[I-] [NH125],does not inhibit EF2K but rather increases eEF2 phosphorylation,–
–,–,–,Cc1cc(C=C2C(=O)C=CC2=O)cc(C)c1O [TX1918],did not show significant eEF2K inhibition,10
